Laboratory results as given in paper PMC2919811 (Analytical biochemistry, 2010).
Where “and” joins values, the source holds several entries; their conditions need not be identical. Equal values may be shown once.

Columns and labels:
[1] = stated in the introduction without data or own reference; cited from earlier work
OATP1B1 = OATP1B1 (Homo sapiens, UniProt Q9Y6L6); test: Substrate uptake and transport kinetics in CHO cells stably expressing OATP1B1
OATP2B1 [2] = target: T1, OATP2B1 (Homo sapiens, UniProt O94956); test: Substrate uptake in CHO cells stably expressing OATP2B1; assay type: cell-based; conditions: 2 μM substrate, five minute accumulation, CHOvector = 1
T1 sequence (O94956 1-709): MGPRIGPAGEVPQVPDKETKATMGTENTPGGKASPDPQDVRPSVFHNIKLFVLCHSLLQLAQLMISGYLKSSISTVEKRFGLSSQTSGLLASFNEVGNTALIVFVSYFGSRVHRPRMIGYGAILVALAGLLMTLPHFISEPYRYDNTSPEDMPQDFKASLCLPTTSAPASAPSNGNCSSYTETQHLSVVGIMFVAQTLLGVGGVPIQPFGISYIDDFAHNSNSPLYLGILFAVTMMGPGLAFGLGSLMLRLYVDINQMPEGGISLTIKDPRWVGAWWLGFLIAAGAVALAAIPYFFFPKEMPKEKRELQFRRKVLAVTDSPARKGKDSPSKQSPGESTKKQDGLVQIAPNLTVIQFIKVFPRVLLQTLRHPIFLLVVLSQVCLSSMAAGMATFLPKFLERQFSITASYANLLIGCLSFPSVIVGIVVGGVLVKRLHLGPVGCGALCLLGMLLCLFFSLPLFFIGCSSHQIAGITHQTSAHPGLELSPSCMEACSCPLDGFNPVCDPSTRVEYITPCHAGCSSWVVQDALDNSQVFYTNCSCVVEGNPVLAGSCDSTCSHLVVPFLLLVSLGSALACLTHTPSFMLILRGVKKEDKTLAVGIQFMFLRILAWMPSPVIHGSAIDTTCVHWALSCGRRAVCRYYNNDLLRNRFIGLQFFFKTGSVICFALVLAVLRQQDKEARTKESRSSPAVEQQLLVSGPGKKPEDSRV

OATP2B1 [3] = target: T1, OATP2B1; test: Cellular accumulation in CHO cells transiently transfected with OATP2B1; assay type: cell-based; conditions: 10 μM 8-FcA, 20 minutes
NTCP = target: T2, NTCP (Homo sapiens, UniProt Q14973); test: Cellular accumulation in CHO cells transiently transfected with NTCP; assay type: cell-based; conditions: 10 μM 8-FcA, 20 minutes
T2 sequence (Q14973 1-349): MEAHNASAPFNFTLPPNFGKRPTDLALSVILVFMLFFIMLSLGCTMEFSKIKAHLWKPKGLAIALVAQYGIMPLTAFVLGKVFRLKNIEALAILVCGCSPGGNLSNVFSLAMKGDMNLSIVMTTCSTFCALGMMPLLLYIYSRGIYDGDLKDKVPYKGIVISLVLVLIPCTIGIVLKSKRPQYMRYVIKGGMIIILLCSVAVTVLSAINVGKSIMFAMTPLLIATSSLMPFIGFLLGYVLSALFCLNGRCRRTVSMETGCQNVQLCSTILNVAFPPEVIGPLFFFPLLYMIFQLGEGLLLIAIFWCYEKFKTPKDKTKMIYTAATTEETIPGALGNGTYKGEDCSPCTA

OAT3 = target: T3, OAT3 (Homo sapiens, UniProt Q8TCC7); assay type: cell-based; conditions: 10 μM 8-FcA, 20 minutes
T3 sequence (Q8TCC7 1-542): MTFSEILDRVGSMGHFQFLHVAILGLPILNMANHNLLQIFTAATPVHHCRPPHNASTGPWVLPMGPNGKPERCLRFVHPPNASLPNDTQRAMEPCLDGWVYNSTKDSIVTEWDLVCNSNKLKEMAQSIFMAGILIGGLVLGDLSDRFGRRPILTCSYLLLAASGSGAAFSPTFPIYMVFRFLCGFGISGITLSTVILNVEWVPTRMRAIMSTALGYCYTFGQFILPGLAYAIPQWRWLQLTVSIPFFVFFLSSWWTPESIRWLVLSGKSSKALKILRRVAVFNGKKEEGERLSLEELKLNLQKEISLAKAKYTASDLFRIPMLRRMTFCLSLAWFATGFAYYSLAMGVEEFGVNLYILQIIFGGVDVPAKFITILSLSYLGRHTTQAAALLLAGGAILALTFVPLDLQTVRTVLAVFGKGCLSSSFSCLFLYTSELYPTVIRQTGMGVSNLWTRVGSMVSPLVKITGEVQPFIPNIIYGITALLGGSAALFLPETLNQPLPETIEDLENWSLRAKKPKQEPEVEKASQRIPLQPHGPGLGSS

OATP1B3 = target: T4, OATP1B3 (Homo sapiens, UniProt Q9NPD5); test: Cellular accumulation in CHO cells transiently transfected with OATP1B3; conditions: 10 μM 8-FcA, 20 minutes
T4 sequence (Q9NPD5 1-702): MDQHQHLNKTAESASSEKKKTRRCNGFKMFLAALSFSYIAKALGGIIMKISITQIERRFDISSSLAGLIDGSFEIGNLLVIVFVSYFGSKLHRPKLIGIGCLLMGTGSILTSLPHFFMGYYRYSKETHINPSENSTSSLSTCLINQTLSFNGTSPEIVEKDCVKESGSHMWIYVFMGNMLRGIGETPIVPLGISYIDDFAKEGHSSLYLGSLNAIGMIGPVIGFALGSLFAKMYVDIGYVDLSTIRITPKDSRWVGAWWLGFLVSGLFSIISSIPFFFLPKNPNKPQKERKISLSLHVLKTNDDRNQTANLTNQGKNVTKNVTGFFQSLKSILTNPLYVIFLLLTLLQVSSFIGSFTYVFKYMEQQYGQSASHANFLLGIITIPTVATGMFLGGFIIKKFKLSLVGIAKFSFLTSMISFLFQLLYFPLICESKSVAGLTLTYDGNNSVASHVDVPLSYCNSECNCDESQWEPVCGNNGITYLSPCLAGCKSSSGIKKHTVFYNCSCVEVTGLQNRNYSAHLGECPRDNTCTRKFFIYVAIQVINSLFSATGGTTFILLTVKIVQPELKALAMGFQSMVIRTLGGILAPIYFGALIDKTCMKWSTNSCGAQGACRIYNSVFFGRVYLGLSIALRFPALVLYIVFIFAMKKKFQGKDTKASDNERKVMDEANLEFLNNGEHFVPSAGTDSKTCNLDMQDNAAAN

Chain of OATP1B1 (Q9Y6L6 whole entry): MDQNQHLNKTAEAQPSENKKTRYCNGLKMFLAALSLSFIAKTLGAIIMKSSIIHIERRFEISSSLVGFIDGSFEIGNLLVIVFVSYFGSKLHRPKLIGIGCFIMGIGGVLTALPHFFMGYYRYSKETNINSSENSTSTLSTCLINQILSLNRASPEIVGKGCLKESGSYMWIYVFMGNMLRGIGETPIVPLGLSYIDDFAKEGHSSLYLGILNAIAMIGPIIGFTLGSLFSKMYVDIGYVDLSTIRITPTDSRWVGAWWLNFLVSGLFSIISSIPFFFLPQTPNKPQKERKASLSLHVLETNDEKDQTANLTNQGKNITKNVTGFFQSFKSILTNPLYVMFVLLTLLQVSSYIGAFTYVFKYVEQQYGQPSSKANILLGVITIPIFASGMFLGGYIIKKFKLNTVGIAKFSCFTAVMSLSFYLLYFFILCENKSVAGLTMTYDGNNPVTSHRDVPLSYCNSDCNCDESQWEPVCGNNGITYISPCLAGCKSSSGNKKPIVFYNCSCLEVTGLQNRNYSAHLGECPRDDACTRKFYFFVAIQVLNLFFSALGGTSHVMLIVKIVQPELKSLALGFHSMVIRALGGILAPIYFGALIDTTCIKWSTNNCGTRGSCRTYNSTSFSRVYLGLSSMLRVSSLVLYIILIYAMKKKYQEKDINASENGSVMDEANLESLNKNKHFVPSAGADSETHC

For Nc1ncnc2c1nc(SCCNC(=S)Nc1ccc(-c3c4ccc(=O)cc-4oc4cc(O)ccc34)c(C(=O)O)c1)n2[C@@H]1O[C@@H]2COP(=O)(O)O[C@H]2[C@H]1O [8-FcA, 8-(2-[Fluoresceinyl]aminoethylthio) adenosine-3', 5'-cyclic monophosphate], the aqueous solubility [1] is listed as “very high aqueous solubility”, the “transport efficiency, Vmax/Km (OATP1B1)” value (OATP1B1) is listed as 0.069 μL/min/cm^2 and the “cellular accumulation relative to control, CHOOATP1B1” value (OATP1B1; 2 μM substrate, five minute accumulation, CHOvector = 1) is listed as “robust accumulation”. For the same compound, the “Vmax of OATP1B1-mediated transport” value (OATP1B1; 8-FcA 0.25-25 μM, 10 min uptake, CHOvector subtracted, mean ± standard error) was 0.20 pmol/min/cm^2 and 0.20±0.01 pmol/min/cm^2, the “cellular accumulation relative to control, CHOOATP2B1” value (OATP2B1 [2]) was “not statistically different from that of CHOvector” and the “cellular accumulation by fluorescence microscopy, OATP2B1” value (OATP2B1 [3]) was “negative”. For the same compound, the “cellular accumulation by fluorescence microscopy, NTCP” value (NTCP) was “negative”, the “cellular accumulation by fluorescence microscopy, OAT3” value (OAT3) was “negative” and the “cellular accumulation by fluorescence microscopy, OATP1B3” value (OATP1B3) was “readily accumulated”.
